Assay: Solubility of cycloastragalus in water, acetone and oil carriers
Type: physicochemical
Text: In certain embodiments, the disclosure provides compositions to deliver the active ingredient to the root bulb of the hair follicle. Cycloastragalus is not soluble in water. Creating a cream formulation could possibly lead to clogging of pores at the site of the hair follicle, which could negatively affect restoration of the follicle. In certain aspects, the present disclosure relates to delivery of cycloastragalus using oil-based formulations. Oil is absorbed into the stratum corneum and deeper layers of the skin where the root bulb cells are located.
Initial attempts at determining an appropriate oil carrier were done using either or in combination together C10-30 Cholesterol and Lanosterol esters.
Further attempts were then made in to dissolve the cycloastragalus in oil carrier.
Cycloastragalus is soluble in acetone. We evaluated the possibility that cycloastragalus could be first dissolved in acetone and then put into solution with an oil carrier. Since acetone evaporates to completion out of any open system, it could be removed leaving the cycloastragalus in solution. One should keep in mind that acetone is incredibly flammable, and methods for removing acetone should be chosen carefully.

In the case of `CC(C)(O)[C@@H]1CC[C@](C)([C@H]2[C@@H](O)C[C@@]3(C)[C@@H]4C[C@H](O)[C@H]5C(C)(C)[C@@H](O)CC[C@@]56C[C@@]46CC[C@]23C)O1` [Cycloastragalus, cycloastragenol], the solubility in acetone (acetone) is reported as “soluble”, the “dissolving in oil carrier” value (oil carrier, direct dissolution without acetone) is reported as “limited success” and the solubility in water is reported as “not soluble”. For the same compound, the solubility in water (listed as cycloastragalus) was “very limited results”.
